The results in this text go back to patent US9296728B2, “Therapeutic compounds” (Regents of the University of Minnesota, priority 2012, dated 2016).

One series concerns the target MCT1 (Rattus norvegicus (Rat), UniProt P53987). In words: Test A. MCT1 inhibition via lactate uptake in rat brain endothelial (RBE4) cells. As to conditions: 14C-lactate uptake. The class given is cell-based. Here is the method:
Test A. MCT1 Inhibition Via Lactate Uptake Rat Brain Endothelial Cells
The entire lactate uptake studies for the inhibition of MCT1 were carried out on RBE4 (Rat Brain Endothelial 4) cells. The expression of MCT1 on these cells was confirmed by Western Blotting. The cells were plated approximately 20-24 hours before the experiment, the number of cells being approximately 10^5 cells per well. The test compounds were dissolved in DMSO and diluted 1000 times using a solution of HEPES buffer (pH 7.43) which consists of 3 μM ^14C-Lactate and 2 μM L-Lactate. The cells were washed twice with 500 μL of HEPES buffer and the cells were allowed to equilibrate for 15 minutes at 37° C. The HEPES buffer was removed and 250 μL of the test sample was added in triplicates. This was repeated for all the compounds, including the controls (CHC and DMSO). After 15 minutes, the compounds were removed from the well and 500 μL of ice-cold stop buffer (0.1 mM CHC solution in HEPES buffer) was added. The plate was kept on ice. Now, the HEPES buffer in one triplicate was removed and DMSO solution was added and immediately removed and ice-cold stop buffer was added. This was considered as “Zero”. One triplicate was left blank, which was used for protein assay after lysing the cells. The cells were washed twice with ice-cold HEPES buffer and then 250 μL of 0.1M NaOH in 5% Triton-X solution was added and the plate is kept on a shaker for 40 minutes to lyse the cells. 150 μL of the lysed cells was added into 4 mL of the scintillation fluid in a scintillation vial and scintillation count was obtained in disintegrations per minute (dpm). The percent inhibition values were calculated by taking DMSO as minimum. Concentration study (usually 9-12 dilutions) was done to determine the IC50 of each compound.

Series [1] can be described thus: Toxicity study in BALB/c nude mice containing WiDr colorectal adenocarcinoma xenograft (body weight). Particulars: BALB/c nude mice with WiDr xenograft, 8 mg/kg i.p. twice daily. The class given is in vivo. Here is the method:
Female BALB/c nude mice weighing ˜20 g were taken and 5.0 10^6 WiDr cancer cells were implanted into their right flanks with a 1:1 mixture of 0.1 mL PBS and matrigel. The tumor was allowed to grow to a size of ˜150 cubic millimeters (14 days). The mice were randomly chosen by chance and assigned into 5 groups (6 mice per group), one group being the control group to which tumor was allowed to grow without any drug administration (food only). The drugs were administered twice daily by P.O. or I.P. Group 1 mice were administered orally with 50 mg/kg of Compound 20. Groups 2, 3 and 4 mice were treated via IP with 10 mg/kg Compound 20, 8 mg/kg of Compound 14 and 238 mg/kg CHC respectively. Body weight changes were recorded every two days for 3 weeks.

Series [2] is described as follows: Toxicity study in healthy ICR mice (body weight, WBC, RBC). Format: in vivo. Particulars: for RBC ± SEM / WBC ± SEM: end of day 22. Here is the method:
60 ICR mice weighing ˜27 grams were randomly assigned into 5 groups (12 animals, 6 male and 6 female per group), one group being the control group without any drug administration (food only). The drugs were administered twice daily by P.O. or I.P. Group 1 and 3 were administered orally with 50 mg/Kg of Compound 20 and 18 mg/Kg of Compound 14 respectively. Group 2 and 4 mice were injected intraperitoneally with 6.67 mg/Kg of Compound 20 and 5.3 mg/Kg of Compound 14 (dissolved in water) respectively. The body weights of mice were recorded daily for 22 days. At the end of the 22nd day, 3 mice were randomly selected from each group and their blood samples were collected for detailed analysis of white blood cell (WBC) and red blood cell (RBC) counts. The mice were then euthanized with CO2.

MCT1, sequence (P53987 whole entry): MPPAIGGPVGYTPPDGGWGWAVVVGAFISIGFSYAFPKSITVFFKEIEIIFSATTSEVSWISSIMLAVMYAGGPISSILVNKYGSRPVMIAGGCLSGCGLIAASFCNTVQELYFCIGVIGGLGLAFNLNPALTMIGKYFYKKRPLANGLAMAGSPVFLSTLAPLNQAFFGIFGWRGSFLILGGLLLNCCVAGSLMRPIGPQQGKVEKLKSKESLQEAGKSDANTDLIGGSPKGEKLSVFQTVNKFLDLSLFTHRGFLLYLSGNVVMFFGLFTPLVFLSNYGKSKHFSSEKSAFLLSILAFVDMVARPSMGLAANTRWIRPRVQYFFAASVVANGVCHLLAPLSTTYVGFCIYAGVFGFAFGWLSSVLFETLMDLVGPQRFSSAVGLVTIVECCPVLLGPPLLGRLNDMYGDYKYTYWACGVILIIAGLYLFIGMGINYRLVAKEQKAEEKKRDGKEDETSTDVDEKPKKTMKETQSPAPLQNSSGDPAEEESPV
MCT1, sequence (P26453 141-388 partner): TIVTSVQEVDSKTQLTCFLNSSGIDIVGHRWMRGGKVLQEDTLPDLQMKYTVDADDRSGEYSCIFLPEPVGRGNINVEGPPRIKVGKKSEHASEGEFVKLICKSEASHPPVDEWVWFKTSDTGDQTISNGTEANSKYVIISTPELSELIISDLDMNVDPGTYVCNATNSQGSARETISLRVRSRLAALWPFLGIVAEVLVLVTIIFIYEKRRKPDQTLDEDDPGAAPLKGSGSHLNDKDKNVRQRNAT

Turning to `CCCCN(CCCC)c1ccc(/C=C(\C#N)C(=O)O)cc1` [Compound 4], the concentration for half-maximal inhibition (IC50) (commonly the concentration that gives 50% inhibition) against MCT1 stood at 0.026 µM.
For the molecule `CCCCCN(CCCCC)c1ccc(/C=C(\C#N)C(=O)O)cc1` [Compound 5], the 50% inhibitory concentration (IC50) against MCT1 stood at 0.12 µM. Compared with the last molecule, the IC50 is about 4.6-fold higher.
As for `CCCCCCN(CCCCCC)c1ccc(/C=C(\C#N)C(=O)O)cc1` [Compound 6], the IC50 at MCT1 was 0.95 µM.
As to `C=CCN(CC=C)c1ccc(/C=C(\C#N)C(=O)O)cc1` [Compound 7], the IC50 against MCT1 is 0.088 µM.
`C#CCN(CC#C)c1ccc(/C=C(\C#N)C(=O)O)cc1` [Compound 8] returned an IC50 on MCT1 of 0.34 µM.
The same measure, in the same setting: next, `CC(C)CN(CC(C)C)c1ccc(/C=C(\C#N)C(=O)O)cc1` [Compound 9]: 0.066 µM.
Still for that read-out and setting: the same measure for `N#C/C(=C\c1ccc(N(Cc2ccccc2)Cc2ccccc2)cc1)C(=O)O` [Compound 10]: 0.043 µM; for `N#C/C(=C\c1ccc(N2CCCC2)cc1)C(=O)O` [Compound 11]: 0.064 µM.
The same measure, in the same setting: next, `N#C/C(=C\c1ccc(N2CCCCC2)cc1)C(=O)O` [Compound 12]: 0.11 µM; `CCCN(CCC)c1ccc(/C=C(\C#N)C(=O)O)c(OC)c1` [Compound 13]: 0.0095 µM.
In the case of `CCCCN(CCCC)c1ccc(/C=C(\C#N)C(=O)O)c(OC)c1` [Compound 14], the “Weight in grams (Day 0)” value in series [1] (Day 0) turned out to be 22.08 grams. In series [1] (Day 22), the “Weight in grams (Day 22)” value came to 23.50 grams. The molecule further displayed an IC50 against MCT1 of 0.0076 µM. In series [2] (5.3 mg/kg i.p. twice daily), the “Weight in grams (Day 0)” value turned out to be 27.05 grams, the “Weight in grams (Day 22)” value amounted to 32.53 grams, the “RBC ± SEM” value is on record as 1.58 ± 0.05 10^13/L and the “WBC ± SEM” value is listed as 5.80 ± 0.72 10^10/L. Besides, in series [2] (18 mg/kg p.o. twice daily), the “Weight in grams (Day 0)” value is recorded as 27.04 grams, the “Weight in grams (Day 22)” value is reported as 32.60 grams, the “RBC ± SEM” value is on record as 1.58 ± 0.02 10^13/L and the “WBC ± SEM” value is reported as 4.57 ± 0.49 10^10/L.
On MCT1, `CCCCCN(CCCCC)c1ccc(/C=C(\C#N)C(=O)O)c(OC)c1` [Compound 15] displayed a half-inhibitory concentration (IC50) of 0.023 µM. In other words, the double-digit nanomolar range.
The molecule `C=CCN(CC=C)c1ccc(/C=C(\C#N)C(=O)O)c(OC)c1` [Compound 16] showed an IC50 at MCT1 of 0.025 µM.
The same measure, in the same setting: the same measure for `C#CCN(CC#C)c1ccc(/C=C(\C#N)C(=O)O)c(OC)c1` [Compound 17]: 0.091 µM.
On MCT1, `COc1cc(N(CC(C)C)CC(C)C)ccc1/C=C(\C#N)C(=O)O` [Compound 18] yielded an IC50 of 0.015 µM.
On the same count and under the same terms, the same measure for `COc1cc(N(Cc2ccccc2)Cc2ccccc2)ccc1/C=C(\C#N)C(=O)O` [Compound 19]: 0.019 µM; for `COc1cc(N2CCCC2)ccc1/C=C(\C#N)C(=O)O` [Compound 21]: 0.059 µM; for `CCCN(CCC)c1ccc2cc(C(=O)O)c(=O)oc2c1` [Compound 22]: 0.299 µM.
For the molecule `C=CCN(CC=C)c1ccc2cc(C(=O)O)c(=O)oc2c1` [Compound 23], the IC50 at MCT1 amounted to 0.25 µM.
Consider `C#CCN(CC#C)c1ccc2cc(C(=O)O)c(=O)oc2c1` [Compound 24], for which the IC50 on MCT1 stood at 0.15 µM.
Consider `O=C(O)c1cc2ccc(N(Cc3ccccc3)Cc3ccccc3)cc2oc1=O` [Compound 25], for which, at MCT1, inhibition was half-maximal at 0.048 µM (IC50).
The same measure, in the same setting: the same measure for `O=C(O)c1cc2ccc(N3CCCC3)cc2oc1=O` [Compound 26]: 0.22 µM; for `O=C(O)c1cc2ccc(N(Cc3ccc(F)cc3)Cc3ccc(F)cc3)cc2oc1=O` [Compound 27]: 0.2 µM.
Still for that read-out and setting: the same measure for `O=C(O)c1cc2ccc(N(Cc3ccc(Cl)cc3)Cc3ccc(Cl)cc3)cc2oc1=O` [Compound 28]: 0.92 µM.
Same read-out and setting: next, `O=C(O)c1cc2ccc(N(Cc3ccc4c(c3)OCO4)Cc3ccc4c(c3)OCO4)cc2oc1=O` [Compound 29]: 0.11 µM.
